Data on 15 molecules can be found in patent US8445511B2, “Quinoline or quinoxaline derivatives for treating neurodegenerative diseases” (Centre National de la Recherche Scientifique (SNRS), priority 2008, dated 2013).

The subject of this assay is fetal dopaminergic neurons in culture. Description: Neuroprotection and differentiation of dopaminergic (TH+) neurons in primary culture of rat embryo mesencephalon (spontaneous degeneration model). In kind it is cell-based. The arrangement: key to Diff (qualitative assessment of neuron differentiation): + indicates that the neurons have a morphology similar to that of the control; ++ and +++ indicate the presence of neurons whose extensions are longer and more numerous than the control neurons; ++ and +++ indicate the presence of neurons whose extensions are longer and more numerous than the control neurons; − indicates that the neurons have neurites that are shorter and less numerous than the control neurons. To be noted: for Diff (qualitative assessment of neuron differentiation): dopaminergic neurons in culture; for viability at 0.1 µM: Rattus norvegicus, Neuron, 192 h, read-out: % Neurons relative to the control ±SEM. The method, then: Dissection consists in extracting the embryos from the uterus of a rat at fifteen days of gestation. The brain of each embryo is then dissected under a binocular magnifier in order to extract the ventral mesencephalon.
The mesencephalons are gathered in a flask containing 2 ml of L15 medium and then mechanically dissociated (30 times), and then 5 ml of L15 medium are added. The suspension is left to rest for 8 minutes. 5 ml of the supernatant are recovered in a new flask and the cells are dissociated again (30 times). 5 ml of L15 are again added and the suspension is left to rest for 8 minutes. 5 ml of supernatant are added to the preceding. The cells thus extracted are then centrifuged for 5 minutes at 1,000 rpm. The cell pellet is taken up in Neurobasal medium supplemented with 1% B27, 1% glutamine and 1% penicillin/streptomycin mixture. The cells are then inoculated at the appropriate dilution (0.6 embryo per well on a 24-well plate and 0.4 per well on a 48-well plate). The cultures are incubated at 37° C. in a humid atmosphere enriched with 5% CO2 in a 24- or 48-well plate.
After 24 hours, two-thirds of the medium of each well is replaced by new medium enriched with the compound of the invention to test at the appropriate dilution. The medium is replaced in the same way after 4 days of culture.
At 8 days of culture, the cells are fixed by a 4% formaldehyde solution and then washed three times with PBS. The cells then undergo several immunohistochemistry procedures: • anti-tyrosine hydroxylase (TH) visualized by a secondary antibody coupled to a fluorochrome that emits in the red spectrum (Cy3). • anti-MAP2 (MAP=microtubule-associated protein) (neuron marker) visualized by a secondary antibody coupled to a fluorochrome that emits in the green spectrum (alexa488). • DAPI (4′,6-diamidino-2-phenylindole), a nuclear marker that emits in the blue spectrum.
Neuroprotection is evaluated by counting TH positive neurons directly under the microscope or MAP2 positive on images, at 15 images per well, expressed as a percentage of the untreated control. The experiments include three wells per condition. Three independent experiments are carried out under these conditions. Total neurite length per cell calculated by the Neurite Outgrowth software by Explora Nova on 20 neurons photographed independently per well gives an indication of the state of maturation of the dopaminergic neurons.
The compounds of the invention were tested on a model of spontaneous degeneration of dopaminergic neurons in culture.
This model consists of culturing cells of the ventral mesencephalon of rat embryo. This part of the brain in culture contains dopaminergic neurons and other primarily GABAergic neurons. These cultures are also composed of glial cells, namely astrocytes, oligodendrocytes and microglia. This is a model of spontaneous degeneration of dopaminergic neurons which mimics certain aspects of Parkinson's disease.
The neuroprotective effect of the compounds of the invention was evaluated by counting dopaminergic neurons (TH^+) marked by tyrosine hydroxylase (TH) immunohistochemistry after 8 days of culture. Thus the compounds were evaluated at 1 nM, 10 nM, 100 nM and 1 μM and were compared with the activity of dibutyryl cyclic AMP (db-cAMP) used as the reference product.
In order to evaluate more quantitatively the activity of the compounds of the invention, neurite growth per cell was measured using the Neurite Outgrowth software developed by Explora Nova. A minimum of 60 neurons per condition were photographed and studied, and the results were then averaged and normalized by the number of neurons considered.

Where [1] appears, read: 100 nM, survival of TH+ dopaminergic neurons after 8 days of culture.

SMILES strings stand for the structures.

On to `CCCCCCCCCCCCCCC(=O)Nc1ccc2nccnc2c1` [Compound F1, Nr-(quinoxalin-6-yl)pentadecanamide], for which the “Diff (qualitative assessment of neuron differentiation)” value (100 nM) is “+++”. Also, under setting [1], the viability at 0.1 µM came to 125 ± 5.5%.

Turning to `CCCCCCCCCCCCCCC(=O)Nc1ccc2nc(C)cnc2c1` [Compound F2, N-(2-methylquinoxalin-6-yl)pentadecanamide], the “Diff (qualitative assessment of neuron differentiation)” value (100 nM) is “+++”. Besides, the viability at 0.1 µM under setting [1] is 120 ± 3.1%.

Consider `CCCCCCCCCCCCCCC(=O)Nc1ccc2ncc(CCCC)nc2c1` [Compound F3, N-(3-butylquinoxalin-6-yl)pentadecanamide], for which the “Diff (qualitative assessment of neuron differentiation)” value (100 nM) is “++”. Further, the viability at 0.1 µM under setting [1] stood at 114 ± 3.8%.

For `CCCCCCCCCCCCCCC(=O)Nc1ccc2nc(CCCCCC)c(CCCC)nc2c1` [Compound F4, N-(2-hexyl-3-butylquinoxalin-6-yl)pentadecanamide], the “Diff (qualitative assessment of neuron differentiation)” value (100 nM) was “++”. Under setting [1], the viability at 0.1 µM was 101 ± 2.2%.

As to `CCCCCCCCCCCCCCCNc1ccc2nccnc2c1` [Compound G1, N-(quinoxalin-6-yl)pentadecanamine], the “Diff (qualitative assessment of neuron differentiation)” value (100 nM) was “+++”. Also, under setting [1], the viability at 0.1 µM amounted to 131 ± 10.9%.

For `CCCCCCCCCCCCCCCNc1ccc2nc(C)cnc2c1` [Compound G2, N-(2-methylquinoxalin-6-yl)pentadecanamine], the “Diff (qualitative assessment of neuron differentiation)” value (100 nM) was “+++”. Also, under setting [1], the viability at 0.1 µM was 135 ± 4.4%.

As to `CCCCCCCCCCCCCCCNc1ccc2ncc(CCCC)nc2c1` [Compound G3, N-(3-butylquinoxalin-6-yl)pentadecanamine], the “Diff (qualitative assessment of neuron differentiation)” value (100 nM) was “++”. Further, the viability at 0.1 µM under setting [1] came to 113 ± 7%.

`CCCCCCCCCCCCCCCNc1ccc2nc(CCCCCC)c(CCCC)nc2c1` [Compound G4, N-(2-hexyl-3-butylquinoxalin-6-yl)pentadecanamine]: the “Diff (qualitative assessment of neuron differentiation)” value (100 nM) is reported as “++”. For the same molecule, the viability at 0.1 µM under setting [1] worked out at 111 ± 5.3%.

On to `OCCCCCCCCCCCCCCCNc1ccc2nccnc2c1` [Compound G5, 15-hydroxy-N-(quinoxalin-6-yl)pentadecylamine], for which the “Diff (qualitative assessment of neuron differentiation)” value (100 nM) is given as “++”. Also, under setting [1], the viability at 0.1 µM was found to be 130 ± 7%.

Regarding `OCCCCCCCCCCCC#Cc1ccc2ccccc2n1` [Compound K2, 13-(quinolin-2-yl)tridec-12-yn-1-ol], the “Diff (qualitative assessment of neuron differentiation)” value (100 nM) is recorded as “++”. Under setting [1], the viability at 0.1 µM was found to be 121 ± 3.1%.

For `C#CC(O)CCCCCCCCCCCCCCc1ccc2ccccc2n1` (stereo not drawn) [Compound N′3, 17-(quinolin-2-yl)heptadec-1-yn-3-ol], the “neuroprotective activity (percentage of survival of dopaminergic neurons), in words, versus reference product db-cAMP” value (dopaminergic neurons, 8 days of culture) was “equal to or greater than that of the reference product”.

On to `C#CC(O)CCC#Cc1cnc2ccccc2c1` (stereo not drawn) [Compound Z1, reference compound], for which the “dose-response of effect on survival of dopaminergic neurons” value (1 nM, 10 nM, 100 nM and 1 μM, FIG. 2) is given as “zero at all the concentrations tested”. Moreover, the “Diff (qualitative assessment of neuron differentiation)” value (100 nM) was “−”. For the same molecule, the viability at 0.1 µM under setting [1] was determined as 98.2 ± 6.3%.

In the case of `C#CC(O)CCCCc1cnc2ccccc2c1` (stereo not drawn) [Compound Z2, reference compound], the “Diff (qualitative assessment of neuron differentiation)” value (100 nM) is listed as “+”. In addition, under setting [1], the viability at 0.1 µM is 118 ± 6.1%.

Consider `CCCCC#Cc1cnc2ccccc2c1` [Compound Z3, reference compound], for which the “Diff (qualitative assessment of neuron differentiation)” value (100 nM) is “−”. Besides, the viability at 0.1 µM under setting [1] turned out to be 104 ± 4.2%.

With `CCCC(=O)Nc1ncnc2c1ncn2[C@@H]1O[C@@H]2COP(=O)(O)O[C@H]2[C@H]1OC(=O)CCC` [db-cAMP, dibutyryl cyclic AMP, reference compound], the “Diff (qualitative assessment of neuron differentiation)” value (100 nM) is reported as “+++”. Moreover, the “% Neurons relative to the control ±SEM” value under setting [1] was determined as 149.9 ± 3.6%.
